From paper PMC5909127, “Optimization of a “bump-and-hole” approach to allele-selective BET bromodomain inhibition” (Chemical Science, 2018)

Tests used:
[1] = biological target: T1, BRD4 BD1 L/V (Homo sapiens, UniProt O60885, L94V); assay: competitive AlphaLISA; type: binding
[2] = biological target: BRD3 BD2 WT (Homo sapiens, UniProt Q15059); assay: competitive AlphaLISA; type: binding
[3] = biological target: T2, BRD4 BD2 L/V (Homo sapiens, UniProt O60885, L387V); assay: competitive AlphaLISA; type: binding
[4] = biological target: T3, BRD2 BD2 L/V (Homo sapiens, UniProt P25440, L383V); assay: competitive AlphaLISA; type: binding
T3 sequence (P25440 344-455 L383V): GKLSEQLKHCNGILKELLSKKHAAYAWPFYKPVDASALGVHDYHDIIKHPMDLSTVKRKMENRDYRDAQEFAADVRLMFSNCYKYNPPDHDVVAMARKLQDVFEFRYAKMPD

[5] = biological target: T4, BRD3 BD1 WT (Homo sapiens, UniProt Q15059); assay: competitive AlphaLISA; type: binding
T4 sequence (Q15059 24-144): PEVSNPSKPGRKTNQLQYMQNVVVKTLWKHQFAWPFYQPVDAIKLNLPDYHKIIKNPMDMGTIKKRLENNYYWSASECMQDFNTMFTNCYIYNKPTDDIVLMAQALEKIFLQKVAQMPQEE

[6] = biological target: WT BET bromodomains (BD1 and BD2 of BRD2, BRD3 and BRD4); assay: competitive AlphaLISA (Bio-JQ1 displacement); type: binding, human; details: mean and SD of all somatic bromodomains; active enantiomer concentration
[7] = biological target: BRDT BD1 WT (Homo sapiens, UniProt Q58F21); assay: competitive AlphaLISA; type: binding
[8] = biological target: T5, BRD4 BD2 WT (Homo sapiens, UniProt O60885); assay: competitive AlphaLISA; type: binding
[9] = biological target: BRDT BD2 WT (Homo sapiens, UniProt Q58F21); assay: competitive AlphaLISA; type: binding
[10] = Plasma Half-life; details: BALB/c, mouse, pH 7.4
[11] = biological target: T6, BRD4 BD1 WT (Homo sapiens, UniProt O60885); assay: competitive AlphaLISA; type: binding
[12] = biological target: T7, BRD2 BD1 L/V (Homo sapiens, UniProt P25440, L110V); assay: competitive AlphaLISA; type: binding
T7 sequence (P25440 71-176 L110V limits assumed): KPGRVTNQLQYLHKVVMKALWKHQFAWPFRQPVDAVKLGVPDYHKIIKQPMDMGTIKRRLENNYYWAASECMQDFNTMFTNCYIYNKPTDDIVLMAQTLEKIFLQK

[13] = biological target: T8, BRD2 BD1 WT (Homo sapiens, UniProt P25440); assay: competitive AlphaLISA; type: binding
T8 sequence (P25440 71-176): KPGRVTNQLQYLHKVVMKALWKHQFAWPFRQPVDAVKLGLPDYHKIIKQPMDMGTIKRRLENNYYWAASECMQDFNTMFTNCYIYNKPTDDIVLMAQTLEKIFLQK

[14] = biological target: T9, BRD3 BD2 L/V (Homo sapiens, UniProt Q15059, L345V); assay: competitive AlphaLISA; type: binding
T9 sequence (Q15059 306-416 L345V limits assumed): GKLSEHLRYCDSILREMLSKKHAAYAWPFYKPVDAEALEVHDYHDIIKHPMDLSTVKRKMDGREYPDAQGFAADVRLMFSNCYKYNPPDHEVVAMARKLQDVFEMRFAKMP

[15] = test system: L/V BET bromodomains (BD1 and BD2 of BRD2, BRD3 and BRD4); assay: competitive AlphaLISA (Bio-JQ1 displacement); type: binding, human; details: for AlphaLISA pIC50 ± SD Δ: L/V minus WT; for AlphaLISA pIC50 ± SD L/V: mean and SD of all somatic bromodomains, active enantiomer concentration
[16] = biological target: T10, BRD2 BD2 WT (Homo sapiens, UniProt P25440); assay: competitive AlphaLISA; type: binding
T10 sequence (P25440 344-455): as the sequence (P25440 344-455 L383V) above, with V40L counted along it

[17] = biological target: BRDT BD2 L/V (Homo sapiens, UniProt Q58F21, L306V); assay: competitive AlphaLISA; type: binding
[18] = biological target: BRDT BD1 L/V (Homo sapiens, UniProt Q58F21, L63V); assay: competitive AlphaLISA; type: binding
[19] = biological target: T11, BRD3 BD1 L/V (Homo sapiens, UniProt Q15059, L70V); assay: competitive AlphaLISA; type: binding
T11 sequence (Q15059 24-144 L70V limits assumed): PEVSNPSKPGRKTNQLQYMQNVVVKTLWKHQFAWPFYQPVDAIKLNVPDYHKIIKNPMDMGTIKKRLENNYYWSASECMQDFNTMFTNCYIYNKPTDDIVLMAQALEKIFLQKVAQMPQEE

[20] = Intrinsic Clearance; details: mouse liver microsomes
[21] = in vitro; details: PAMPA, pH 7.4
[22] = biological target: T3, BRD2 BD2 L/V; assay: ITC; type: binding
[23] = biological target: T6, BRD4 BD1 WT; assay: ITC; type: binding
[24] = biological target: T8, BRD2 BD1 WT; assay: ITC; type: binding
[25] = biological target: T11, BRD3 BD1 L/V; assay: ITC; type: binding
[26] = biological target: T4, BRD3 BD1 WT; assay: ITC; type: binding
[27] = biological target: T9, BRD3 BD2 L/V; assay: ITC; type: binding
[28] = biological target: T5, BRD4 BD2 WT; assay: ITC; type: binding
[29] = biological target: T1, BRD4 BD1 L/V; assay: ITC; type: binding; details: for Kd: Kd BRD4 BD1 L/V
[30] = biological target: T7, BRD2 BD1 L/V; assay: ITC; type: binding
[31] = biological target: T2, BRD4 BD2 L/V; assay: ITC; type: binding
[32] = biological target: T10, BRD2 BD2 WT; assay: ITC; type: binding
[33] = test system: L/V somatic BET bromodomains; assay: ITC; details: L/V minus WT
[34] = AlphaLISA pIC50 Value BRD4 BD1 L/V
[35] = AlphaLISA pIC50 Value BRD4 BD1 WT

Sequence of BRD3 BD2 WT (Q15059 306-416): as the sequence (Q15059 306-416 L345V limits assumed) above, with V40L counted along it

Row | Structure (SMILES) | IC50 [1, 34] [µM] | IC50 [2] [µM] | IC50 [3] [µM] | IC50 [4] [µM] | IC50 [5] [µM] | AlphaLISA pIC50 ± SD WT [6] | IC50 [7] [µM] | IC50 [8] [µM] | IC50 [9] [µM] | half-life at 50 µM [10] [h] | IC50 [11, 35] [µM] | IC50 [12] [µM] | IC50 [13] [µM] | IC50 [14] [µM] | AlphaLISA pIC50 ± SD Δ [15] | IC50 [16] [µM] | IC50 [17] [µM] | IC50 [18] [µM] | IC50 [19] [µM] | CL int [20] [ml min^–1 g^–1] | other results
1 | CC[C@@H](C(=O)N(CC)CC)[C@@H]1N=C(c2ccc(Cl)cc2)c2cc(OC)ccc2-n2c(C)nnc21 (relative stereo) [Compound 20] | 1.26 | 25.1 | 3.16 | 1.58 | 20 | 4.6 ± 0.1 | 39.8 | 31.6 | 39.8 | > 3 | 25.1 | 2 | 31.6 | 1.58 | 1.2 ± 0.2 | 15.8 | 6.31 | 6.31 | 0.501 | >50 | AlphaLISA pIC50 ± SD L/V [15]: 5.8 ± 0.2
2 | C=CC[C@@H](C(=O)OC)[C@@H]1N=C(c2ccc(Cl)cc2)c2ccc(OC)cc2-n2c(C)nnc21 (relative stereo) [Compound 9] | 3.16 | 50.1 | 3.16 | 1.26 | 31.6 | 4.4 ± 0.1 | 63.1 | 63.1 | 50.1 | > 3 | 39.8 | 3.98 | 50.1 | 1 | 1.3 ± 0.2 | 39.8 | 5.01 | 6.31 | 1.58 | 9.4 | Papp [21]: 13.6 ×10⁻⁶ cm/s; AlphaLISA pIC50 ± SD L/V [15]: 5.7 ± 0.2
3 | CC[C@@H](C(=O)OC(C)(C)C)[C@@H]1N=C(c2ccc(Cl)cc2)c2cc(OC)ccc2-n2c(C)nnc21 [Compound 23] | 0.794 | 5.01 | 1.58 | 1 | 2.51 | 5.3 ± 0.1 | 6.31 | 6.31 | 6.31 | > 3 | 5.01 | 1.58 | 5.01 | 0.794 | 0.7 ± 0.1 | 5.01 | 2.51 | 2.51 | 0.398 | 30.7 | AlphaLISA pIC50 ± SD L/V [15]: 6.0 ± 0.2
4 | COC(=O)[C@H](C)[C@@H]1N=C(c2ccc(Cl)cc2)c2ccc(OC)cc2-n2c(C)nnc21 (racemic) [Compound 7] | 0.2 | 5.01 | 0.2 | 0.316 | 1.58 | 5.4 ± 0.2 | 5.01 | 6.31 | 7.94 | > 3 | 3.16 | 0.2 | 3.16 | 0.1 | 1.4 ± 0.2 | 7.94 | – | 0.251 | 0.1 | <0.5 | Kd [22]: 0.33 µM; ΔpIC50 BRD4 BD1 ([1]; L/V minus WT, total compound concentration): 1.4; IC50 ([1]; pIC50 BRD4 BD1 L/V, separated enantiomers test, total compound concentration): 0.631 µM; Kd [23]: 28 µM; Kd [24]: 32 µM; Kd [25]: 0.14 µM; Kd [26]: 12 µM; Kd [27]: 0.23 µM; IC50 ([11]; pIC50 BRD4 BD1 WT, separated enantiomers test, total compound concentration): 12.6 µM; Kd [28]: 33 µM; Papp [21]: 15.8 ×10⁻⁶ cm/s; ΔH BRD4 BD1 L/V ([29]; ITC, total compound concentration): -4.2 ± 0.0 kcal/mol; Kd ([29]; ITC of separated enantiomers and racemates, total compound concentration): 0.5 ± 0.05 µM; Kd ([29]; ITC, 30°C): 0.14 µM; Kd [30]: 0.31 µM; Kd [31]: 0.98 µM; Kd [32]: > 60 µM; ITC pKd ± SD Δ [33]: 2.0 ± 0.4
5 | CCNC(=O)[C@H](CC)[C@@H]1N=C(c2ccc(Cl)cc2)c2ccc(OC)cc2-n2c(C)nnc21 (relative stereo) [Compound 22] | 7.94 | > 100 | – | 7.94 | 63.1 | <4.0 | > 100 | > 100 | > 100 | > 3 | 63.1 | 6.31 | > 100 | 3.98 | >1.2 | > 100 | 20 | 20 | 3.16 | 2.1 | Papp [21]: 5.9 ×10⁻⁶ cm/s; AlphaLISA pIC50 ± SD L/V [15]: 5.2 ± 0.2
6 | C=CC[C@@H](C(=O)NCC)[C@@H]1N=C(c2ccc(Cl)cc2)c2cc(OC)ccc2-n2c(C)nnc21 (relative stereo) [Compound 18] | 1.26 | 50.1 | 2 | 1 | 31.6 | 4.3 ± 0.1 | 79.4 | 63.1 | 79.4 | > 3 | 39.8 | 2.51 | 50.1 | 1.26 | 1.5 ± 0.1 | 50.1 | 5.01 | 5.01 | 0.794 | 2.6 | Papp [21]: 5.2 ×10⁻⁶ cm/s; AlphaLISA pIC50 ± SD L/V [15]: 5.9 ± 0.2
7 | C=CC[C@@H](C(=O)OC(C)(C)C)[C@@H]1N=C(c2ccc(Cl)cc2)c2ccc(OC)cc2-n2c(C)nnc21 [Compound 26] | 1.58 | 5.01 | 3.16 | 1.58 | 3.16 | 5.2 ± 0.2 | 10 | 10 | 10 | > 3 | 6.31 | 2.51 | 7.94 | 1.26 | 0.5 ± 0.1 | 6.31 | 2.51 | 3.98 | 1.26 | 39.4 | AlphaLISA pIC50 ± SD L/V [15]: 5.8 ± 0.2
8 | COC(=O)[C@H](C)[C@@H]1N=C(c2ccc(Cl)cc2)c2cc(OC)ccc2-n2c(C)nnc21 (relative stereo) [Compound 3] | – | – | – | – | 0.251 | 6.2 ± 0.3 | 2 | – | 1.26 | > 3 | – | 0.0631 | 2 | 0.0316 | 1.2 ± 0.2 | 1 | 0.0794 | – | 0.0316 | 0.7 | Papp [21]: 18.5 ×10⁻⁶ cm/s
9 | COC(=O)CC1N=C(c2ccc(Cl)cc2)c2cc(OC)ccc2-n2c(C)nnc21 (stereo not shown) [Compound 1] | – | – | – | 0.316 | 0.126 | – | 0.501 | – | – | 0.9 | – | – | 0.316 | 0.501 | – | 0.316 | 1 | – | 0.0631 | <0.5 | Papp [21]: 14.9 ×10⁻⁶ cm/s
